How the values were obtained:
[1] = tested on: Smn protein; assay: Smn protein levels in tissues of Δ7 SMA mice of the survival study; type: in vivo, mouse; details: neonatal Δ7 SMA mice; brain and muscle; treated until P47-55 (Compound 35), until P68 (Compound 626)
Procedure: Protocol. The tissue samples in Safe-Lock tubes are weighed and the volume of RIPA buffer containing the protease inhibitor cocktail is added based on the weight to volume ratios for each type of tissue: Brain (50 mg/mL), Muscle (50 mg/mL) and Spinal Cord (25 mg/mL).
Tissues are homogenized using the TissueLyzer by bead milling. 5 mm stainless steel beads are added to the sample and shaken vigorously for 5 minutes at 30 Hz in the TissueLyzer. The samples are then centrifuged for 20 minutes at 14,000×g in a microcentrifuge and the homogenates transferred to the PCR plate. […] Fluorescence for each well of the plate at 665 nm and 620 nm is measured on an EnVision multilabel plate reader (Perkin-Elmer). The total protein in the tissue homogenate is measured using the BCA assay according to the manufacturer's protocol.
The normalized fluorescence signal is calculated for each sample, Blank and vehicle control well by dividing the signal at 665 nm by the signal at 620 nm. Normalizing the signal accounts for possible fluorescence quenching due to the matrix effect of the tissue homogenate. […] The ΔF value for each tissue sample well is divided by the total protein quantity (determined using the BCA assay) for that tissue sample. […]
Protocol. […] The number of surviving mice in each group is recorded every day and plotted as a percent of total number of mice. […]

[2] = tested on: full length and Δ7 SMN2 mRNAs; assay: Endogenous SMN2 mRNA end-point semi-quantitative RT-PCR splicing assay in cultured cells; type: cell-based, human; details: GM03813 Type 1 SMA patient fibroblasts, increasing concentrations, 24 hrs, agarose gel
Procedure: The endpoint reverse transcription-PCR splicing assay is used to visualize and quantify the levels of the full length and Δ7 SMN2 mRNAs in primary cells and cell lines containing the SMN2 gene treated with a test compound.
Protocol. GM03813 SMA patient cells (5,000 cells/well) are seeded in 200 μL of cell culture medium (DMEM plus 10% FBS) in 96-well flat-bottom plates and the plate is immediately swirled to ensure proper dispersal of cells, forming an even monolayer of cells. Cells are allowed to attach for at least 4-6 hrs. Test compounds are serially diluted 3.16-fold in 100% DMSO to generate a 7-point concentration curve. A solution of test compound (1 μL, 200× in DMSO) is added to each test well and 1 μL DMSO is added to each control well. The plate is incubated for 24 hrs in a cell culture incubator (37° C., 5% CO2, 100% relative humidity). The cells are then lysed in Cells-To-Ct lysis buffer and the lysate is stored at −80° C.
SMN FL and Δ7 mRNAs are identified using the following primers in Table 6. These primers hybridize to a nucleotide sequence in exon 6 (SMN Forward C, SEQ ID NO. 11) (nucleotide 43 to nucleotide 63) and exon 8 (SMN Reverse C, SEQ ID NO. 12) (nucleotide 51 to nucleotide 73) common to human SMN1 and SMN2 mRNAs. Since the SMA patient cells used in Example 4 contain only the SMN2 gene, RT-PCR can visualize and quantify only SMN2 full-length and SMN2 Δ7 mRNAs.
To synthesize cDNA, 5 μL of lysate, 4 μL of 5× iScript reaction mix, 1 μL of reverse transcriptase, and 10 μL of water are combined and incubated 5 min at 25° C. followed by 30 min at 42° C., followed by 5 min at 85° C. cDNA solution is stored at −20° C.
To perform endpoint PCR, 5 μL of cDNA, 0.2 μL of 100 μM forward primer, 0.2 μL of 100 μM reverse primer, and 22.5 μL of polymerase super mix are combined in a 96 well semiskirted PCR plate. PCR is carried out at the following temperatures for indicated time: Step 1: 94° C. (2 min), Step 2: 94° C. (30 sec), Step 3: 55° C. (30 sec), Step 4: 68° C. (1 min), then repeat Steps 2 to 4 for a total of 33 cycles, then hold at 4° C.
10 μL of each PCR sample is electrophoretically separated on a 2% agarose E-gel for 14 minutes stained with ds DNA staining reagents (e.g., ethidium bromide) and visualized using a gel imager.

[3] = tested on: SMA Δ7 homozygous knockout mice; assay: Body weight of neonatal Δ7 SMA mice; type: in vivo, mouse; details: IP QD from PND 3, then orally BID until study end, compared to vehicle
Procedure: The change in body weight of neonatal SMA mice is used to determine whether treatment with a test compound improves body weight.
Protocol. SMA Δ7 homozygous knockout mice are dosed intraperitoneally (IP) with test compound or vehicle (100% DMSO) once per day (QD) from postnatal day (PND) 3 until the dose regimen is switched to an oral dose twice per day (BID) in 0.5% hydroxypropylmethyl cellulose (HPMC) with 0.1% Tween-80 at a dose 3.16-fold higher than the dose used for IP. Body weights of SMA Δ7 mice treated with test compound or vehicle and age matched heterozygous mice are recorded every day.

Row | SMILES | Smn protein expression in tissues relative to vehicle treated and age-matched heterozygous mice [1] | SMN2 FL mRNA [2] | SMN2 Δ7 mRNA [2] | body weight [3]
1 | CC(C)NCCc1ccc2cc(-c3nc4c(Cl)cccc4s3)c(=O)oc2c1 [Cpd 35, 3-(4-chloro-1,3-benzothiazol-2-yl)-7-[2-(propan-2-ylamino)ethyl]-2H-chromen-2-one] | increased Smn protein expression | progressively more SMN2 FL mRNA | less SMN2 Δ7 mRNA | improved compared to vehicle treated mice
2 | CCN1CCN(c2ccc3cc(-c4cn5cc(C)nc(C)c5n4)c(=O)oc3c2)C[C@@H]1C [Cpd 626, 3-(6,8-dimethylimidazo[1,2-a]pyrazin-2-yl)-7-[(3S)-4-ethyl-3-methylpiperazin-1-yl]-2H-chromen-2-one] | increased Smn protein expression | progressively more SMN2 FL mRNA | less SMN2 Δ7 mRNA | improved compared to vehicle treated mice

From patent USRE47689E1, “Compounds for treating spinal muscular atrophy” (PTC Therapeutics, Inc., priority 2011, dated 2019)
